Reference: patent US7998965B2, “Glutamate aggrecanase inhibitors” (Wyeth LLC, priority 2005, dated 2011)

Columns and labels:
[1] = molecular target: T1, purified recombinant human Aggrecanase-1 (rAgg1) (Homo sapiens, UniProt O75173); experiment: In vitro fluorescence screen for Aggrecanase-1 inhibitors; format: biochemical; conditions: Table 1; for Ki: enzyme not given, column follows Agg1 IC50, read-out: Ki; for IC50: read-out: Agg1 IC50
T1 sequence (O75173 213-837): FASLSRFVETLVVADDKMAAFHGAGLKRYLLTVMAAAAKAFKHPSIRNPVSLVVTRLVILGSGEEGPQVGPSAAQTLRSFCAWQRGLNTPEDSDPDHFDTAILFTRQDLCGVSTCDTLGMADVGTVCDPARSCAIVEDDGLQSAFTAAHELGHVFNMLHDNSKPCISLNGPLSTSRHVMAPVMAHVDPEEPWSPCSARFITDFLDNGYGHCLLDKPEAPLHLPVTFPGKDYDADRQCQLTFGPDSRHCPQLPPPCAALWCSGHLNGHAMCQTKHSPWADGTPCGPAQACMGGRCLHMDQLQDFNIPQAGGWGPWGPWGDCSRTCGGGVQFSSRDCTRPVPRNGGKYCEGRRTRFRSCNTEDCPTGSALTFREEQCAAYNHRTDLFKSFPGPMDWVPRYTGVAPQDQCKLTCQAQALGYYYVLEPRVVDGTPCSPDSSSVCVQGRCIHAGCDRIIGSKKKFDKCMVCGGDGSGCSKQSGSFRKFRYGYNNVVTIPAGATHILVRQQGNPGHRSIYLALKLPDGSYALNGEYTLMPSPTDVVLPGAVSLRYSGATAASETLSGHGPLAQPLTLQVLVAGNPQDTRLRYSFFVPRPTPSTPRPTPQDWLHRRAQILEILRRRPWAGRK

[2] = molecular target: T2, purified recombinant human Aggrecanase-2 (Ag2t-Phe628-Strep) (Homo sapiens, UniProt Q9UNA0); experiment: In vitro fluorescence screen for Aggrecanase-2 inhibitors; format: biochemical; conditions: Table 1; read-out: Agg 2 IC50
T2 construct: the form used is denoted as Ag2t-Phe628-Strep (MW=41,737)
T2 sequence (Q9UNA0 262-628): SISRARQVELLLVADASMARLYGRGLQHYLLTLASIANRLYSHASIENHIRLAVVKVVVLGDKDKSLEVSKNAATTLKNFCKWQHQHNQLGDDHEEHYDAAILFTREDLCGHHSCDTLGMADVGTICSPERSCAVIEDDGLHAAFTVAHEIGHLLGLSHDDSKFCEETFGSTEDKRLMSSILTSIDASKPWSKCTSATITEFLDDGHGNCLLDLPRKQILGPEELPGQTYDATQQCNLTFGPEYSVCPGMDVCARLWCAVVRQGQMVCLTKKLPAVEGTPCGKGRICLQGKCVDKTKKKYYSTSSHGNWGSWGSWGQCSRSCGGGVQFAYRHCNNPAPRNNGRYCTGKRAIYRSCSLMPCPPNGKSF

[3] = molecular target: T3, recombinant human catalytic domain of MMP-13 (Homo sapiens, UniProt P45452); experiment: In vitro fluorescence assay of MMP-13 activity; format: biochemical; conditions: Table 1; unit inferred
T3 construct: catalytic domain of MMP-13 (165 amino acids, residues 104-268, 19 kDa)

[4] = molecular target: T4, recombinant human catalytic domain of MMP-14 (Homo sapiens, UniProt P50281); experiment: In vitro fluorescence assay of MMP-14 activity; format: biochemical; conditions: Table 1; unit inferred
T4 construct: 177 amino acids corresponding to Tyr89-Gly265 of mature human enzyme; purchased Chemicon International, Inc. CC1041

[5] = tested on: bovine articular cartilage treated with Interleukin 1 alpha (IL-1α); experiment: Bovine articular cartilage explant cultures: inhibition of degradation of proteoglycan; format: cell-based; conditions: inhibitory effect expressed as percentage, concentration not printed
How it was run: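 Bovine metacarpal cartilage discs (6 mm), equilibrated in serum-free DMEM-based medium, were treated with 5 ng/ml IL-1 plus compound (working solutions 0.1-10 μg/ml), with medium collected and replaced on days 1, 2 and 3. Released proteoglycan was measured by DMMB absorbance at 520 nm against chondroitin sulphate standards, expressed as μg per mg cartilage, and inhibition given as percentage.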

MMP-1 = molecular target: T5, MMP-1 (Homo sapiens, UniProt P03956); experiment: MMP-1 of Table 1; format: biochemical; conditions: for MMP-1: unit not given; for IC50: unit inferred
T5 sequence (P03956 100-469): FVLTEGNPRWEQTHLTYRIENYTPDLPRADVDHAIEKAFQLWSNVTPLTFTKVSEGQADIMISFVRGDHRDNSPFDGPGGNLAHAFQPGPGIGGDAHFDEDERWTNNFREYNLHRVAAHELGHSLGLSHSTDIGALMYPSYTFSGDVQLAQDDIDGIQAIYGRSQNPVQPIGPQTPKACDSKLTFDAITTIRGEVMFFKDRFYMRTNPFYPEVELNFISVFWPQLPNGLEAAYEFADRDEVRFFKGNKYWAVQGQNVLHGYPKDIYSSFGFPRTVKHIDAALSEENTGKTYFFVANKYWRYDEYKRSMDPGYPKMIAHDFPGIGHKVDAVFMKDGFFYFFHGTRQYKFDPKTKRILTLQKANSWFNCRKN

recombinant human MMP-2 = molecular target: T6, recombinant human MMP-2 (Homo sapiens, UniProt P08253); experiment: In vitro fluorescence assay of MMP-2 activity
T6 sequence (P08253 110-660): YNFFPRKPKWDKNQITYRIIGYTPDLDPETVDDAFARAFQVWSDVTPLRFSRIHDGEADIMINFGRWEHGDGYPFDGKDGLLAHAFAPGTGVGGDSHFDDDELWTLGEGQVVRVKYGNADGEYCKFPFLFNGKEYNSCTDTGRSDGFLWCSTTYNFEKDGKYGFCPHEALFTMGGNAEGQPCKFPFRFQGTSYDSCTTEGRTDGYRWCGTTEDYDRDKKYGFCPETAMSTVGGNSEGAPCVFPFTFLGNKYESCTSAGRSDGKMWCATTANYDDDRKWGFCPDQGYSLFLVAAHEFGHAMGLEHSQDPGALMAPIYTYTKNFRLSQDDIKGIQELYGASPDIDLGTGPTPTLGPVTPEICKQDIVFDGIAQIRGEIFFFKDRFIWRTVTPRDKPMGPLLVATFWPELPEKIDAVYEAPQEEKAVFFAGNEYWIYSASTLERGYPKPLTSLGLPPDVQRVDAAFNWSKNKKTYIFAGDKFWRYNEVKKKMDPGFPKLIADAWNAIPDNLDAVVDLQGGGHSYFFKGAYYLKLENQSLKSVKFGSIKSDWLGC

[6] = Table 1, first of two columns headed bovine
[7] = Table 1, second of two columns headed bovine

Row | Structure (SMILES) | Ki [1] [µM] | IC50 [1] [µM] | IC50 [2] [µM] | IC50 [3] [µM] | IC50 [4] [µM] | bovine [5, 6] [%] | bovine [5, 7] [%] | MMP-1 (MMP-1) | IC50 (recombinant human MMP-2) [µM] | IC50 (MMP-1) [µM]
1 | O=C(O)CC[C@H](NC(=O)c1ccc(-c2ccccc2)cc1)C(=O)NCc1ccc(Cl)cc1Cl [Example 8S, N^2-(1,1′-biphenyl-4-ylcarbonyl)-N^1-(2,4-dichlorobenzyl)-L-α-glutamine] | 0.245 | 0.15 | 1.3 | > 200 | ~25 | 51 | 40 | no inh | 3.13 | –
2 | C=Cc1ccc(CNC(=O)[C@H](CCC(=O)O)NC(=O)c2ccc(-c3ccccc3)cc2)cc1 [Example 10R, N^2-(1,1′-biphenyl-4-ylcarbonyl)-N^1-(4-vinylbenzyl)-L-α-glutamine] | 0.187 | 0.077 | 1.9 | > 20 | > 200 | 41 | 0 | – | > 20 | > 50
3 | Cc1cccc(CNC(=O)[C@H](CCC(=O)O)NC(=O)c2ccc(-c3ccccc3)cc2)c1 [Example 8O, N^2-(1,1′-biphenyl-4-ylcarbonyl)-N^1-(3-methylbenzyl)-L-α-glutamine] | 0.082 | 0.075 | 1.3 | 31.4 | ~22 | 69 | 34 | no inh | 5 | –
4 | O=C(O)CC[C@H](NC(=O)c1ccc(-c2ccccc2)cc1)C(=O)NC1CCCCC1 [Example 8A, N^2-(1,1′-biphenyl-4-ylcarbonyl)-N^1-cyclohexyl-L-α-glutamine] | – | 0.15 | 0.9 | ~40 | ~25 | 75 | 29 | – | 4.4 | > 100
5 | O=C(O)CC[C@H](NC(=O)c1ccc(-c2ccccc2)cc1)C(=O)NC1C2CC3CC(C2)CC1C3 (stereo partly drawn) [Example 8H, N^1-2-adamantyl-N^2-(1,1′-biphenyl-4-ylcarbonyl)-L-α-glutamine] | – | 0.2 | 0.266 | ~50 | ~25 | 85 | 67 | – | 3.31 | > 100
6 | O=C(O)CC[C@H](NC(=O)c1ccc(-c2ccccc2)cc1)C(=O)NCc1ccc2c(c1)OCO2 [Example 7, N^1-(1,3-benzodioxol-5-ylmethyl)-N^2-(1,1′-biphenyl-4-ylcarbonyl)-L-α-glutamine] | – | 0.15 | 1.8 | ~13 | ~13 | 61 | 28 | – | 3 | > 100
7 | O=C(O)CC[C@H](NC(=O)c1ccc(-c2ccccc2)cc1)C(=O)NC1CCCC1 [Example 8G, N^2-(1,1′-biphenyl-4-ylcarbonyl)-N^1-cyclopentyl-L-α-glutamine] | – | 0.08 | 0.614 | ~50 | ~25 | 76 | 39 | – | ~50 | > 100
8 | CCCCCCCNC(=O)[C@H](CCC(=O)O)NC(=O)c1ccc(-c2ccccc2)cc1 [Example 8JJJ, N^2-(1,1′-biphenyl-4-ylcarbonyl)-N^1-heptyl-L-α-glutamine] | 0.054 | 0.054 | 0.3 | 30 | > 200 | 74 | 26 | – | > 20 | > 200
9 | COc1cccc(CNC(=O)[C@H](CCC(=O)O)NC(=O)c2ccc(-c3ccccc3)cc2)c1 [Example 8Q, N^2-(1,1′-biphenyl-4-ylcarbonyl)-N^1-(3-methoxybenzyl)-L-α-glutamine] | 0.031 | 0.011 | 0.4 | 37.3 | ~22 | 66 | 24 | no inh | 6.1 | –
10 | COc1cc(CNC(=O)[C@H](CCC(=O)O)NC(=O)c2ccc(-c3ccccc3)cc2)cc(OC)c1OC [Example 8R, N^2-(1,1′-biphenyl-4-ylcarbonyl)-N^1-(3,4,5-trimethoxybenzyl)-L-α-glutamine] | 0.005 | 0.016 | 0.05 | 42.4 | ~22 | 86 | 78 | no inh | 10.4 | –
11 | COc1ccc(CNC(=O)[C@H](CCC(=O)O)NC(=O)c2ccc(-c3ccccc3)cc2)cc1OC [Example 8F, N^2-(1,1′-biphenyl-4-ylcarbonyl)-N^1-(3,4-dimethoxybenzyl)-L-α-glutamine] | 0.012 | 0.03 | 0.304 | ~22 | ~25 | 81 | 56 | – | 5.63 | > 200
12 | O=C(O)CC[C@H](NC(=O)c1ccc(-c2ccccc2)cc1)C(=O)NC1CC1 [Example 8B, N^2-(1,1′-biphenyl-4-ylcarbonyl)-N^1-cyclopropyl-L-α-glutamine] | – | 0.46 | 1.9 | ~50 | ~25 | 54 | 22 | – | 5.6 | > 100
13 | Cc1cc(C)cc(-c2ccc(C(=O)N[C@@H](CCC(=O)O)C(=O)NCc3ccccc3)cc2)c1 [Example 13A, N^1-benzyl-N^2-[(3′,5′-dimethyl-1,1′-biphenyl-4-yl)carbonyl]-L-α-glutamine] | – | 1.5 | ~67 | > 100 | > 100 | 37 | 18 | – | ~67 | > 100
14 | O=C(O)CC[C@H](NC(=O)c1ccc(-c2ccccc2)cc1)C(=O)NCc1ccc(F)cc1 [Example 8D, N^2-(1,1′-biphenyl-4-ylcarbonyl)-N^1-(4-fluorobenzyl)-L-α-glutamine] | – | 0.22 | – | ~25 | 17 | 67 | 27 | – | 4.4 | > 100
